Assay results reported in PMC4468608, “A distinct p53 target gene set predicts for response to the selective p53–HDM2 inhibitor NVP-CGM097” (eLife, 2015).
Read-outs that look alike come from different tables or passages of the source.

Test system: cell lines from the Cancer Cell Line Encyclopedia (CCLE)
Assay: High-throughput cell viability assay, CCLE cell line panel (n = 356)
Format: cell-based, human
Conditions: Homo sapiens
Description: Cell lines were partitioned into sensitive and insensitive groups based on compound potency (IC50). […] All other cell lines were obtained from ATCC (American Type Culture Collection), DSMZ (Deutsche Sammlung von Mikroorganismen und Zellkulturen), and HSRRB (Health Science Research Resources Bank) and cultured in RPMI or Dulbecco's modified Eagle's medium plus 10% FBS (Invitrogen, Carlsbad, CA) at 37°C, 5% CO2.

Measured: IC50

COc1cc2c(cc1OC(C)C)[C@H](c1ccc(Cl)cc1)N(c1ccc(N(C)C[C@H]3CC[C@H](N4CCNC(=O)C4)CC3)cc1)C(=O)C2 [NVP-CFC218]
> 8 µM: LOX IMVI, TP53 WT | LS-1034, LS1034, TP53 MUT | LUDLU-1, LUDLU-1, TP53 MUT | Lu-65, LU65, TP53 MUT | MDA-MB-453, MDA-MB-453, TP53 WT | MDA-MB-468, MDA-MB-468, TP53 MUT | MEG-01, MEG-01, TP53 MUT | MFE-296, MFE-296, TP53 MUT | MFE-319, TP53 MUT | MG-63, MG-63, TP53 WT | MHH-ES-1, read-out: NVP- CFC218 IC50 (µM), cell line MHH-ES-1, bone, TP53 MUT | MIA PaCa-2, MIA PaCa-2, TP53 MUT | MKN-74, MKN74, TP53 MUT | MOG-G-CCM, TP53 MUT | MOG-G-UVW, TP53 WT | MOLM16, MOLM-16, TP53 MUT | MOR/CPR, TP53 MUT | MPP 89, TP53 WT | Malme-3M, read-out: NVP- CFC218 IC50 (µM), cell line Malme-3M, skin, TP53 WT | MeWo, TP53 MUT | Mono-Mac-1, MONO-MAC-1, TP53 MUT | NB-4, TP53 MUT | NCI-H23, NCI-H23, TP53 MUT | NCI-H211, NCI-H211, TP53 MUT | NCI-H358, NCI-H358, TP53 WT | NCI-H441, NCI-H441, TP53 MUT | NCI-H460, read-out: NVP- CFC218 IC50 (µM), cell line NCI-H460, lung, TP53 WT | NCI-H520, NCI-H520, TP53 MUT | NCI-H647, read-out: NVP- CFC218 IC50 (µM), cell line NCI-H647, lung, TP53 MUT | NCI-H650, NCI-H650, TP53 MUT | NCI-H747, NCI-H747, TP53 MUT | NCI-H810, NCI-H810, TP53 MUT | NCI-H889, NCI-H889, TP53 MUT | NCI-H1299, read-out: NVP- CFC218 IC50 (µM), cell line NCI-H1299, lung, TP53 WT | NCI-H1355, NCI-H1355, TP53 MUT | NCI-H1373, NCI-H1373, TP53 MUT | NCI-H1435, NCI-H1435, TP53 MUT | NCI-H1573, NCI-H1573, TP53 MUT | NCI-H1581, NCI-H1581, TP53 MUT | NCI-H1648, NCI-H1648, TP53 MUT | NCI-H1650, read-out: NVP- CFC218 IC50 (µM), cell line NCI-H1650, lung, TP53 MUT | NCI-H1651, NCI-H1651, TP53 MUT | NCI-H1693, read-out: NVP- CFC218 IC50 (µM), cell line NCI-H1693, lung, TP53 MUT | NCI-H1703, read-out: NVP- CFC218 IC50 (µM), cell line NCI-H1703, lung, TP53 MUT | NCI-H1734, NCI-H1734, TP53 MUT | NCI-H1792, NCI-H1792, TP53 MUT | NCI-H1915, NCI-H1915, TP53 MUT | NCI-H1975, NCI-H1975, TP53 MUT | NCI-H2009, NCI-H2009, TP53 MUT | NCI-H2087, NCI-H2087, TP53 MUT | NCI-H2110, NCI-H2110, TP53 MUT | NCI-H2172, NCI-H2172, TP53 WT | NCI-H2196, NCI-H2196, TP53 MUT | NCI-H2347, NCI-H2347, TP53 WT | NCI-H2444, NCI-H2444, TP53 MUT | NCI-H2452, NCI-H2452, TP53 WT | NCO2, TP53 MUT | OAW-42, read-out: NVP- CFC218 IC50 (µM), cell line OAW42, ovary, TP53 WT | OC 316, TP53 MUT | OCI-Ly10, OCI-LY10, TP53 MUT | OCI-M1, OCI-M1, TP53 MUT | OE19, read-out: NVP- CFC218 IC50 (µM), cell line OE19, oesophagus, TP53 MUT | OE33, OE33, TP53 MUT | ONS-76, ONS-76, TP53 WT | OPM-2, OPM-2, TP53 MUT | OV-90, OV-90, TP53 MUT | OVCAR-3, NIH:OVCAR-3, TP53 MUT | OVCAR-4, OVCAR-4, TP53 MUT | OVCAR-8, read-out: NVP- CFC218 IC50 (µM), cell line OVCAR-8, ovary, TP53 MUT | OVSAHO, TP53 MUT | P3HR-1, P3HR-1, TP53 MUT | P31-FUJ, P31/FUJ, TP53 MUT
0.69 µM: MOLM-13, MOLM-13, TP53 WT
0.88 µM: NCI-H1666, NCI-H1666, TP53 WT
3.36 µM: NCI-H2052, NCI-H2052, TP53 WT
1.16 µM: NALM-6, NALM-6, TP53 WT
6.39 µM: NCI-H1944, NCI-H1944, TP53 WT
2.38 µM: OCI-AML2, OCI-AML2, TP53 WT
6.92 µM: MFE-280, MFE-280, TP53 MUT
1.9 µM: NCI-H2122, NCI-H2122, TP53 MUT
2.5 µM: P12-Ichikawa, TP53 MUT
7.62 µM: Loucy, TP53 MUT | MDA-MB-415, MDA-MB-415, TP53 MUT
2.71 µM: Lu-99, LU99, TP53 WT
5.21 µM: MC116, MC116, TP53 MUT
7.24 µM: LP-1, TP53 MUT
